The values below come from patent publication US20120321584A1, “PROCESSES FOR PREPARING AMINE SALTS OF KMUP-3 AND USE THEREOF” (KAOHSIUNG MEDICAL UNIVERSITY, priority 2011, published 2012).

One assay deals with PKCα. The assay is described as follows: PKCα translocation of beating left atrium. Type of assay: cell-based, guinea-pig. As to conditions: KMUP-3 1 μM, left atrium cells. As for the experimental part: To determine the effect of KMUP-3 or KMUP-3 amine salt on PKCa translocation, isolated left beating atrium was incubated with KMUP-3 or KMUP-3 amine salt for 30 minutes (0.1-10 μM). In brief, frozen left atrium was pulverized to a fine powder at the temperature of liquid nitrogen for preparation of cytosolic and membrane fractions. Isolated left atrium tissues were then homogenized by a sonicator (XL-2020, Heat Systems Ultrasonic, Plainview, N.Y., USA) at 4 in 1 ml of homogenization buffer containing 20 mM Tris-HCl (pH 7.5), 1 mM dithiothreitol (DTT), 5 mM EGTA, 2 mM EDTA, 0.5 mM PMSF, 20 μM leupeptin and 20 μM aprotinin. The cytosol fractions were obtained by collecting the supernatants after centrifuging the cells at 100,000×g for 45 minutes at 4. The pellets were resonicated in the homogenizing buffer with 1% Triton X-100, centrifuged again at 100,000×g for 45 minutes at 4, and the supernatants collected as membrane fractions. The extracts for cytosol and membrane fractions were denatured by heating at for 10 minutes in sampling buffer, and an aliquot containing 20 μg of total protein was subjected to a 10% SDS-polyacrylamide gel electrophoresis. […] Protein was detected with horseradish peroxidase (HRP) conjugated secondary antibody (BD Transduction Laboratories). […] The immunoreactive bands were detected by chemiluminescence (ECL) reagents (PerkinElmer Life Sciences, Inc).

The subject of assay [1] is eNOS. Briefly: eNOS expression in neonatal myocytes, Western blotting. In kind it is cell-based, rat. As to conditions: neonatal rat cardiomyocytes. Here is the method: (§1) eNOS/p-NOS and cAMP/cGMP in neonatal myocytes. To determine the role of the NO/cGMP-pathway in heart, neonatal rat myocyte protein was extracted followed by Western blotting to measure the expression of eNOS, phosphorylated eNOS (p-eNOS), cAMP, and cGMP (FIG. 14 A-14 B and FIG. 15 A-15 B). KMUP-3 increased eNOS and p-eNOS in neonatal rat cardiomyocytes and the effect was reduced by L-NAME (100 μM)-pretreatment (FIG. 14A and FIG. 14B). KMUP-3 increased both cAMP and cGMP.
(§2) Protein extraction and Western blotting analysis. Briefly, after incubation with test agents in an organ bath, isolated beating atrium was frozen and pulverized to a fine powder at the temperature of liquid nitrogen. Atrium powders were then homogenized in protein extraction reagent (Pierce Biotechnology, Inc., Rockford, Ill.) by sonication. The samples were sonicated 10 sec three times and centrifuged at 13,000 rpm at 4° C. for 30 min. The protein concentrations of supernatants were determined by using bovine serum albumin as the standard. […] The intensity of the bands was measured by densitometry. eNOS or phosphorylated eNOS were extracted from cell culture of neonatal myocytes, PA ring and aortic ring (2-3 mm) of rats and measured by Western blotting analysis.
On the technique in general: In western blotting, separated proteins are transferred to a membrane and probed.

In the next assay the test system is ROCKII. Briefly: ROCKII expression in aorta and pulmonary artery rings, Western blotting. Type of assay: cell-based, rat. The following applies: aorta and pulmonary artery (PA) ring. As for the experimental part:
(§3) ROCKII expression and vascular resistance. To determine whether KMUP-3's ROCKII activity increased vascular resistance, aorta and pulmonary artery (PA) ring protein was extracted followed by Western blotting to measure the expression ROCKII and eNOS.
as §2, with “standard. The cell extracts were then boiled in a ratio of 4:1 with sample buffer (Tris 100 mM, pH 6.8; glycerol 20%, Sodium dodecyl sulfate (SDS) 4% and bromophenol blue 0.2%). Electrophoresis was performed using 10% SDS-PAGE and transferred to nitrocellulose membranes (Millipore Corp., Billerica, Mass.).” for “standard.”

The next assay has as its system cAMP. Briefly: cAMP in neonatal myocytes. Type of assay: cell-based, rat. As for the experimental part: as §1
For assay [2], the system named is eNOS. The assay is described as follows: eNOS expression in aorta and pulmonary artery rings, Western blotting. In kind it is cell-based, rat. As to conditions: aorta and pulmonary artery (PA) ring. Here is the method: as §3
as §2, with “standard. The cell extracts were then boiled in a ratio of 4:1 with sample buffer (Tris 100 mM, pH 6.8; glycerol 20%, Sodium dodecyl sulfate (SDS) 4% and bromophenol blue 0.2%). Electrophoresis was performed using 10% SDS-PAGE and transferred to nitrocellulose membranes (Millipore Corp., Billerica, Mass.).” for “standard.”

In assay [3] the test system is electrically-stimulated left atria. Briefly: Electrically-stimulated beating left atrium, organ bath. Type of assay: cell-based, guinea-pig. The following applies: 0.1~30 μM, electrical stimulation 1 Hz.

As for `Cn1c(=O)c2c(ncn2CCN2CCN(c3ccc([N+](=O)[O-])cc3)CC2)n(C)c1=O` [KMUP-3, 7-[2-[4-(4-nitrobenzene)piperazinyl]ethyl]-1,3-dimethylxanthine], the “Translocation of PKCα from cytosol to membrane” value with PKCα was “significantly increased”. Further, in the assay on eNOS [1], the eNOS expression entry was “increased”. Besides, in the assay on ROCKII, the “Vascular ROCKII expression” value is “did not increase”. Besides, in the assay with cAMP, the cAMP entry was “increased”. Moreover, the “Vascular eNOS expression” value in the assay on eNOS [2] was “did increase”. The Left atrium contractility entry in assay [3] is “concentration-dependently increased”.
